Laboratory results as given in patent publication US20170096636A1, “METHODS AND COMPOUNDS FOR PHOTOTHERAPY WITH CHALCOGENORHODAMINE PHOTOSENSITIZERS” (Wake Forest University Health Sciences, priority 2014, published 2017).
“And” between values parts separate entries of the source, which are not always exact repeats. Equal values may be shown once. Read-outs that look alike come from different tables or passages of the source.

Tests used:
[1] = Fluorescence quantum yield in MeOH; assay type: physicochemical; settings: for ΦF, MeOH: quantum yield for fluorescence in MeOH; for ΦF of sulfur analogue relative to selenium analogue: MeOH
[2] = test system: HUT-78 cells; assay: Cellular uptake and extrusion of photosensitizer (flow cytometry MFI); assay type: cell-based; settings: ±SE; for Uptake MFI: 2.5 × 10^−7 M photosensitizer, 20 minutes exposure; for % Extrusion: percent change in MFI after 18 hour extrusion period, 2.5 × 10^−7 M
Method: Cellular Uptake and Extrusion of Chalcogenorhodamine Photosensitizers. […] Cellular uptake of the chalcogenorhodamine photosensitizers was measured after a 20 minute exposure to 2.5×10^−7 M photosensitizer in malignant T cells (HUT-78 cells, Table 2). Transmembrane movement of the photosensitizers in the secretory direction (basolateral to apical) was measured after an 18-h extrusion period. As described above, the Se-containing molecules fluoresced at a lower intensity relative to the S-containing molecules. […] Overall, the PF6^− salts were more slowly extruded from cells relative to the chloride salts of the amide, with a greater difference in the extrusion kinetics noted between the thiorhodamine PF6 salts compared to the selenorhodamine chloride salts.

[3] = molecular target: P-gp (Homo sapiens, UniProt P08183); settings: cited from earlier work
[4] = Quantum yield for generation of singlet oxygen, time-resolved 1O2 phosphorescence; assay type: physicochemical; settings: air-saturated MeOH, TMR-Se as reference
[5] = n-octanol / PBS pH 7.4, shake flask

Chain of P-gp (P08183 whole entry): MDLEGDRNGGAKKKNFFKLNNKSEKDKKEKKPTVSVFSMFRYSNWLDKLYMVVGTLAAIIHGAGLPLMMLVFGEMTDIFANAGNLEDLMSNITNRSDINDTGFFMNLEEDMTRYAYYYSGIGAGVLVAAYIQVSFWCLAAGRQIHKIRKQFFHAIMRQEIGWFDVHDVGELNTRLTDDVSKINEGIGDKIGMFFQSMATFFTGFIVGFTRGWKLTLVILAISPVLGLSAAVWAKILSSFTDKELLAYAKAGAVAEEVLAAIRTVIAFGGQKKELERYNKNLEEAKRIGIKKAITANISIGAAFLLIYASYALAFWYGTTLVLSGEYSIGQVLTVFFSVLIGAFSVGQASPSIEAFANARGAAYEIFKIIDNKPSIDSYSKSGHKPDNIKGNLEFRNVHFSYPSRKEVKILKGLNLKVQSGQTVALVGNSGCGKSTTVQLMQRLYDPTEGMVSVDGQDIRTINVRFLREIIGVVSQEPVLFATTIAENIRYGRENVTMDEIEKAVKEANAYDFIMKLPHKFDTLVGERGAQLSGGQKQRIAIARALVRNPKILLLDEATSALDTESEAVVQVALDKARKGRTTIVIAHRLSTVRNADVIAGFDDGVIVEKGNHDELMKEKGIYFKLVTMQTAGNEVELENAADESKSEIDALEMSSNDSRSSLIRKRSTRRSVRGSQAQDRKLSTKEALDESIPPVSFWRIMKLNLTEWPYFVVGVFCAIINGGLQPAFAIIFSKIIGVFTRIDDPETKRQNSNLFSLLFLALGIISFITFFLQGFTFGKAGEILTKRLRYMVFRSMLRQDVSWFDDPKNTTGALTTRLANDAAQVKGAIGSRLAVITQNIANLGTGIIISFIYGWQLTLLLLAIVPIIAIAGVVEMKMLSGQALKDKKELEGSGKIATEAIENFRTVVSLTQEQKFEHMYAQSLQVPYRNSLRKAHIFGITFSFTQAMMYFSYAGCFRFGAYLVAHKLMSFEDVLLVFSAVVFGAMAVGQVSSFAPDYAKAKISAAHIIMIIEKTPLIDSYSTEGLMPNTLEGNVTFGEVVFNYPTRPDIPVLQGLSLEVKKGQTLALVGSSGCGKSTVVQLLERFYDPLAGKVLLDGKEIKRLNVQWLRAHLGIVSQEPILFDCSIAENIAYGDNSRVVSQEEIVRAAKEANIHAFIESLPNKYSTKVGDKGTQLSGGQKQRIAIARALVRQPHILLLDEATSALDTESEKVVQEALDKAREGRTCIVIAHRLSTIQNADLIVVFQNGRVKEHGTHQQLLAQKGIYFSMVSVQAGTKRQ

ΦF of sulfur analogue relative to selenium analogue [1]	Φ(^1O2), MeOH [4]	log P (pH 7.4)	Compound	ΦF, MeOH [1]	Uptake MFI [2]	% Extrusion [2]	log P [5]	effect on ATPase activity in P-gp [3]
roughly 30 fold			CN(C)c1ccc2c(-c3ccc(C(=S)N4CCCCC4)s3)c3cc4c5c(c3[s+]c2c1)CCCN5CCC4.[Cl-] [5-S—Cl]	0.30 ± 0.01	76661 (±5618)	76.13 (±5.21) %	2.97 ± 0.06	
	0.13±0.03 and 0.13 ± 0.02		CN(C)c1ccc2c(-c3ccc(C(=S)N4CCCCC4)s3)c3cc4c5c(c3[se+]c2c1)CCCN5CCC4.[Cl-] [5-Se—Cl]	0.009 ± 0.002	12814 (±1256)	85.03 (±2.90) %	3.00 ± 0.02	
		3.00 ± 0.02	CCN(CC)C(=S)c1ccc(-c2c3ccc(N(C)C)cc3[se+]c3c4c5c(cc23)CCCN5CCC4)s1.[Cl-] [7-Se—Cl, 12-(Dimethylamino)-2,3,6,7-tetrahydro-9-(5-(diethylcarbamothioyl)-thiophen-2-yl)-1H,5H-selenoxantheno[2,3,4-ij]quinolizin-14-ium chloriode]		14935 (±1810)	81.23 (±2.56) %		
	0.23 ± 0.03	2.74 ± 0.02	CN(C)c1ccc2c(-c3ccc(C(=O)N4CCCCC4)s3)c3cc4c5c(c3[se+]c2c1)CCCN5CCC4.[Cl-] [6-Se—Cl, 12-(Dimethylamino)-2,3,6,7-tetrahydro-9-(N-piperidyl-2-thienyl-5-carboxamido)-1H,5H-selenoxantheno[2,3,4-ij]quinolizin-14-ium hexafluorophosphate(V)]	0.011 ± 0.002	14910	88.39 (±1.13) %		
roughly 30 fold			CN(C)c1ccc2c(-c3ccc(C(=O)N4CCCCC4)s3)c3cc4c5c(c3[s+]c2c1)CCCN5CCC4.[Cl-] [6-S—Cl]	0.36 ± 0.01	122500	82.10 (±1.17) %	2.69 ± 0.02	

More lines, now with the values behind:

Compound	ΦF of sulfur analogue relative to selenium analogue [1]	Φ(^1O2), MeOH [4]	log P (pH 7.4)	ΦF, MeOH [1]	Uptake MFI [2]	% Extrusion [2]	log P [5]	effect on ATPase activity in P-gp [3]
CCN(CC)C(=S)c1ccc(-c2c3ccc(=[N+](C)C)cc-3sc3cc4c(cc23)C(C)(C)CCN4C)s1.[Cl-] [3-S—Cl]				0.07 ± 0.01	38237 (±2684)	86.81 (±0.89) %	1.98 ± 0.06	
CN1CCC(C)(C)c2cc3c(-c4ccc(C(=S)N5CCCCC5)s4)c4ccc(=[N+](C)C)cc-4sc3cc21.[Cl-] [1-S—Cl]				0.07 ± 0.01	30070 (±2481)	84.97 (±2.87) %	1.92 ± 0.08	
CCN(CC)C(=S)c1ccc(-c2c3ccc(N(C)C)cc3[s+]c3c4c5c(cc23)CCCN5CCC4)s1.[Cl-] [7-S—Cl]					63950 (±5511)	74.88 (±3.62) %	2.55 ± 0.02	
CCN(CC)C(=O)c1ccc(-c2c3ccc(=[N+](C)C)cc-3sc3cc4c(cc23)C(C)(C)CCN4C)s1.F[P-](F)(F)(F)(F)F [4-S—PF6]				0.09 ± 0.01	66500	92.20 (±0.55) %	1.5	stimulate ATPase activity
CN(C)c1ccc2c(-c3ccc(C(=O)N4CCCCC4)s3)c3cc4c5c(c3[s+]c2c1)CCCN5CCC4.F[P-](F)(F)(F)(F)F [6-S—PF6]				0.36 ± 0.01	114190	82.54 (±1.17) %	1.9	stimulate ATPase activity
CN1CCC(C)(C)c2cc3c(-c4ccc(C(=O)N5CCCCC5)s4)c4ccc(=[N+](C)C)cc-4sc3cc21.F[P-](F)(F)(F)(F)F [2-S—PF6]				0.09 ± 0.01	71978	91.79 (±1.16) %	1.2	stimulate ATPase activity
CN1CCC(C)(C)c2cc3c(-c4ccc(C(=S)N5CCCCC5)s4)c4ccc(=[N+](C)C)cc-4sc3cc21.F[P-](F)(F)(F)(F)F [1-S—PF6]				0.07 ± 0.01	30229 (±1124)	84.16 (±3.00) %	1.2	inhibit ATPase activity
CCN(CC)C(=S)c1ccc(-c2c3ccc(=[N+](C)C)cc-3[se]c3cc4c(cc23)C(C)(C)CCN4C)s1.[Cl-] [3-Se—Cl, N-(6-(5-(diethylcarbamothioyl)thiophen-2-yl)-1,4,4-trimethyl-3,4-dihydro-1H-seleno-chromeno[3,2-g]quinolin-9(2H)-ylidene)-N-methylmethanaminium Chloride]		0.54±0.03	2.41 ± 0.04	0.008 ± 0.002	5480 (±666)	88.65 (±1.21) %		
CN(C)c1ccc2c(-c3ccc(C(=S)N4CCCCC4)s3)c3cc4c5c(c3[s+]c2c1)CCCN5CCC4.F[P-](F)(F)(F)(F)F [5-S—PF6]				0.28 ± 0.01	80192 (±4122)	76.52 (±4.79) %	1.7	inhibit ATPase activity
CCN(CC)C(=S)c1ccc(-c2c3ccc(=[N+](C)C)cc-3sc3cc4c(cc23)C(C)(C)CCN4C)s1.F[P-](F)(F)(F)(F)F [3-S—PF6]				0.07 ± 0.01	45685 (±2726)	84.91 (±1.57) %	1.7	inhibit ATPase activity
CN1CCC(C)(C)c2cc3c(-c4ccc(C(=S)N5CCCCC5)s4)c4ccc(=[N+](C)C)cc-4[se]c3cc21.[Cl-] [1-Se—Cl, N-methyl-N-(1,4,4-trimethyl-6-(5-(piperidine-1-carbonothioyl)thiophen-2-yl)-3,4-dihydro-1H-selenochromeno[3,2-g]quinolin-9(2H)-ylidene)methanaminium Chloride]		0.44 ± 0.03		0.008 ± 0.001	6162 (±633)	90.06 (±1.95) %	1.61 ± 0.06	
CCN(CC)C(=S)c1ccc(-c2c3ccc(N(C)C)cc3[s+]c3c4c5c(cc23)CCCN5CCC4)s1.F[P-](F)(F)(F)(F)F [7-S—PF6]					87456 (±10089)	73.25 (±2.15) %	2.7	inhibit ATPase activity
